Laboratory results from patent US20080070868A1, “Novel Thiazole Inhibitors of Fructose 1,6-bisphosphatase” (Metabasis Therapeutics, Inc., priority 2004, published 2008).
“Also recorded” adds a separate entry of the source. Read-outs that look alike come from different tables or passages of the source.

Assays:
human liver FBPase = target: T1, human liver FBPase (Homo sapiens, UniProt P09467); test: Inhibition of human liver FBPase; type: biochemical; conditions: purified recombinant human liver FBPase, 0.150 mM fructose 1,6-bisphosphate, 37° C.; read-out: IC50 (hlFBPase)
T1 construct: made in house; host or cells: E. coli BL21
T1 sequence (P09467 2-338 limits assumed): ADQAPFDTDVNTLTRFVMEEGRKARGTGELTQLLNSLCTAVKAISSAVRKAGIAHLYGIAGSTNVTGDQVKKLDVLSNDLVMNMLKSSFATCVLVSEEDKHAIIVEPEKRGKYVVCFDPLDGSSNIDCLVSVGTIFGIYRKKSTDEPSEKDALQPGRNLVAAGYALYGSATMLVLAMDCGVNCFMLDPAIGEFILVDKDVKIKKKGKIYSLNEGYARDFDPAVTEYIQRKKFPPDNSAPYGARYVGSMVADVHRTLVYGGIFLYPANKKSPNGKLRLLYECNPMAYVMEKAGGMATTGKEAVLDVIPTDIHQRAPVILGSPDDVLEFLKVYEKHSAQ
Method: E. coli strain BL21 transformed with a human liver FBPase-encoding plasmid was obtained from Dr. M. R. El-Maghrabi at the State University of New York at Stony Brook. […] Enzymatic activity was measured spectrophotometrically in reactions that coupled the formation of product (fructose 6-phosphate) to the reduction of dimethylthiazoldiphenyltetrazolium bromide (MTT) via NADP^+ and phenazine methosulfate (PMS), using phosphoglucose isomerase and glucose 6-phosphate dehydrogenase as the coupling enzymes. Reaction mixtures (200 μl) were made up in 96-well microtitre plates, and consisted of 50 mM Tris-HCl, pH 7.4, 100 mM KCl, 5 mM EGTA, 2 mM MgCl2, 0.2 mM NADP, 1 mg/ml BSA, 1 mM MTT, 0.6 mM PMS, 1 unit/ml phosphoglucose isomerase, 2 units/ml glucose 6-phosphate dehydrogenase, and 0.150 mM substrate (fructose 1,6-bisphosphate). Inhibitor concentrations were varied from 0.01 μM to 10 μM. Reactions were started by the addition of 0.002 units of pure hlFBPase, and were monitored for 7 min. at 590 nm in a Molecular Devices Plate Reader (37° C.).

rat liver FBPase = target: T2, rat liver FBPase (Rattus norvegicus, UniProt P19112); test: Inhibition of rat liver FBPase; type: biochemical; conditions: partially purified rat liver FBPase; read-out: IC50 (rlFBPase)
T2 construct: This partially purified fraction was used for enzyme assays; from tissue; host or cells: rat liver (45-75% ammonium sulfate fraction of the homogenate)
T2 sequence (P19112 2-363 limits assumed): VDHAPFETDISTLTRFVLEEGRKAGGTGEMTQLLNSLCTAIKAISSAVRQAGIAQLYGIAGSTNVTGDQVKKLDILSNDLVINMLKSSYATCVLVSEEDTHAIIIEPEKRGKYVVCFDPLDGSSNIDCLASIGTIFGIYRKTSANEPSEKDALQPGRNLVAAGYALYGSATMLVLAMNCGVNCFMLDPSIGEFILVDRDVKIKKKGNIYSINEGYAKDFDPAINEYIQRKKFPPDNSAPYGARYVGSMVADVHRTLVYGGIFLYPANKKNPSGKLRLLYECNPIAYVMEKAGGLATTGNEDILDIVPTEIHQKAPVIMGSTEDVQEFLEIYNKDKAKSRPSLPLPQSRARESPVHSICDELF
Method: Rat liver FBPase was obtained by homogenizing freshly isolated rat liver in 100 mM Tris-HCl buffer, pH 7.4, containing 1 mM EGTA, and 10% glycerol. The homogenate was clarified by centrifugation, and the 45-75% ammonium sulfate fraction prepared. This fraction was redissolved in the homogenization buffer and desalted on a PD-10 gel filtration column (Biorad) eluted with same. This partially purified fraction was used for enzyme assays.

human NAT1 = target: T3, human NAT1 (Homo sapiens, UniProt P18440); test: N-acetylation by recombinant human NAT1; type: in vitro ADME; conditions: for % Conversion NAT1: compound 100 μM, 37° C., 120 min, N-acyl product by HPLC; for susceptibility to N-acetylation by NAT1, in words: human recombinant NAT1
T3 construct: purchased BD Gentest (Bedford, Mass.); host or cells: insect cells
T3 sequence (P18440 1-290): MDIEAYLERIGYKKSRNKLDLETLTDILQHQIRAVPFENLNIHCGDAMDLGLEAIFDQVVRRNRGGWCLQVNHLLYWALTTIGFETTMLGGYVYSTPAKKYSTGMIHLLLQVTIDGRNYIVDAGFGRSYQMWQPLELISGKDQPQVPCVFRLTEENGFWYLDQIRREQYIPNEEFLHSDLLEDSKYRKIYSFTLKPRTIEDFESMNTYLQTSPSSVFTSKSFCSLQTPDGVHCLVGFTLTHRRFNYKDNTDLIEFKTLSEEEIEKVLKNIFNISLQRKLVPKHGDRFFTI
Method: (§1) Insect cell-expressed human NAT1 and NAT2 and control insect cytosol were obtained from BD Gentest (Bedford, Mass.). Compounds (100 μM) were incubated in 0.25 mL of NAT reaction cocktail consisting of 25 mM potassium phosphate pH 7.4 (at 25° C.), 1 mM EDTA, 1 mM DTT, 0.5 mM acetyl CoA, 5 mM acetyl-DL-carnitine, 20 u/mL acetyltransferase and either NAT1, NAT2 or control insect cytosol (0.1 mg/mL). Reactions were performed in an Eppendorf Thermomixer (37° C., 120 min.). At 0 and 120 min., 100 μl of each reaction was removed and added to a clean 1.7 mL tube containing 150 μl of 100% methanol. The tubes were vortexed and centrifuged at 14,000 rpm for 10 min. in an Eppendorf microcentrifuge (room temperature, 5 min., 14,000 rpm). The supernatants were analyzed by HPLC (Agilent 1100 series) using a Phenosphere C18 column (5 micron, 150×4.6 mm). The column was equilibrated with 20 mM potassium phosphate pH 4.5 or pH 6.2 (at 25° C.) and eluted with a linear gradient to 80% acetonitrile. The percent conversion of the compounds was calculated from the following equation: area of N-acyl product divided by (area of compound+area of N-acyl product), multiplied by 100.

[1] = Variability of N-acetylation in human liver S9 fractions; type: in vitro ADME; conditions: 100 μM, S9 10 mg/mL protein; donors with high or low N-acetylase activity
Method: The reactions are incubated, processed, and analyzed as described in Example C.

human NAT2 [2] = target: T4, human NAT2 (Homo sapiens, UniProt P11245); test: N-acetylation by recombinant human NAT2
T4 sequence (P11245 1-290): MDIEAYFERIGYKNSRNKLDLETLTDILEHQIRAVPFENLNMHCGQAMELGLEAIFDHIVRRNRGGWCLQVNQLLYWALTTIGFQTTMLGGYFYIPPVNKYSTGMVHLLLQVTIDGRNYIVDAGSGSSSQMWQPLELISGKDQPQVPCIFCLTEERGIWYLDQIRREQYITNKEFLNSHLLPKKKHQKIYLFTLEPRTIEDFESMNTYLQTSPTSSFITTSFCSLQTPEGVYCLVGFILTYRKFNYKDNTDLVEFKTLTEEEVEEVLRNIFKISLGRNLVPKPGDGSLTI
Method: as §1

Sprague-Dawley rats = test: Glucose lowering following oral administration to the fasted, normal rat; type: in vivo; conditions: maximum lowering relative to saline controls, 10 mg/kg oral, 18-h fasted rats
Method: Compounds were administered by oral gavage to 18-h fasted, Sprague-Dawley rats (250-300 g, n=3/4/group) at a dose of 10 mg/kg. Phosphonic acids (active moieties) were prepared in deionized water, and the solution adjusted to neutrality with sodium hydroxide. Prodrugs were dissolved in polyethylene glycol (mw 400). Blood samples were taken via tail vein nick immediately prior to dosing and at 1 h intervals thereafter. Blood glucose was analyzed by means of a HemoCue glucose analyzer (HemoCue Inc., Mission Viejo, Calif.). The table below indicates the maximum % glucose lowering achieved relative to control animals dosed with saline.

human NAT2 [3] = target: T4, human NAT2; conditions: for % Conversion NAT2: human, 120 min, 100 μM, pH 7.4
Method: as §1

ZDF rats = test: Blood glucose lowering in the Zucker Diabetic Fatty (ZDF) rat; type: in vivo; conditions: for glucose lowering compared to vehicle-treated rats: 10 mg/kg oral in PEG-400, at 6 h, fasting ZDF rats; for duration of action: ZDF rat, oral, 2.1 at 10-300 mg/kg
Method: Nine week old ZDF rats were fasted at 7 am and screened for hyperglycemia (BG>300 mg/dl) at 12:30 pm. […] Food was withheld for 6 to 9 h. Blood samples were collected intermittently from the tail vein and diluted 1:2 (v:v) in 20% glycerol-saline with 20 U/ml heparin. Blood glucose was determined by means of a Hemocue glucose analyzer (Hemocue Inc., Mission Viejo, Calif.) used according to the instructions of the manufacturer. Results were expressed as means ±standard errors of the mean (sem) for all values. Differences between treatment and vehicle-treated animals were evaluated using ANOVA with Dunnett's post-hoc analysis or Tukey-Kramer's post hoc analysis when all differences are compared. Differences are considered significant when p≦0.05.

Row | IC50 (human liver FBPase) [nM] | melting point [°C] | % Conversion NAT1 (human NAT1) [%] | susceptibility to N-acetylation by NAT1, in words (human NAT1) | % Conversion NAT2 (human NAT2 [3]) [%] | SMILES | inhibition in vivo at 10 mg/kg (Sprague-Dawley rats) [%] | further results
1 | 66 | > 207 |  |  |  | CC(=O)c1sc(N)nc1-c1ccc(P(=O)(O)O)o1 [Compound 1.4, [5-(2-amino-5-acetylthiazol-4-yl)furan-2-yl]phosphonic acid] |  | 
2 | 56 | > 210 |  |  |  | Nc1nc(-c2ccc(P(=O)(O)O)o2)c(C(=O)c2ccccc2)s1 [Compound 1.5, [5-(2-amino-5-benzoylthiazol-4-yl)furan-2-yl]phosphonic acid] |  | 
3 |  |  |  |  | 0 | CC(C)OC(=O)C(C)(C)NP(=O)(NC(C)(C)C(=O)OC(C)C)c1ccc(-c2nc(N)sc2C(=O)C(C)(C)C)o1 [Compound 2.3] | 27 | susceptibility to N-acetylation by NAT2, in words (human NAT2 [3]): insusceptible
4 |  |  | 51 | highly susceptible | 5.9 | CC(C)Cc1sc(N)nc1-c1ccc(P(=O)(O)O)o1 [Compound 3.6, reference compound] |  | IC50 (rat liver FBPase): 140 nM; conversion to N-acetylated metabolite in human liver S9 from various donors [1]: high levels
5 | 18 | 202 to 205 | 0 | not metabolized |  | CCC(C)(CC)C(=O)c1sc(N)nc1-c1ccc(P(=O)(O)O)o1 [Compound 1.3, [5-(2-amino-5-(2-ethyl-2-methyl-butyryl)thiazol-4-yl)furan-2-yl]phosphonic acid] |  | 
6 |  | 160 to 164 |  |  |  | CCC(C)(CC)C(=O)c1sc(N)nc1-c1ccc(P(=O)(NC(C)(C)C(=O)OC(C)C)NC(C)(C)C(=O)OC(C)C)o1 [Compound 2.6] | 12 | 
7 |  | 86 to 88 |  |  |  | CCOC(=O)CNP(=O)(NCC(=O)OCC)c1ccc(-c2nc(N)sc2C(=O)C(C)(C)C)o1 [Compound 2.4] | 22 | 
8 | 12 |  | 22.4 | highly susceptible |  | CC(C)(C)Cc1sc(N)nc1-c1ccc(P(=O)(O)O)o1 [Compound 3.1, reference compound] |  | IC50 (rat liver FBPase): 92 nM
9 |  | 157 to 160 |  |  |  | CCOC(=O)C(C)(C)NP(=O)(NC(C)(C)C(=O)OCC)c1ccc(-c2nc(N)sc2C(=O)C(C)(CC)CC)o1 [Compound 2.5] | 15 | 
10 | 25 |  | 0 | not metabolized |  | CCC(C)(C)C(=O)c1sc(N)nc1-c1ccc(P(=O)(O)O)o1 [Compound 1.2, {5-[2-amino-5-(2,2-dimethyl-butyryl)thiazol-4-yl]furan-2-yl}phosphonic acid] |  | 
11 | > 100000 |  | 6.3 |  | 62.4 | CCOC(=O)[C@H](C)NP(=O)(N[C@@H](C)C(=O)OCC)c1ccc(-c2nc(N)sc2CC(C)C)o1 [Compound 4.6, reference compound] |  | glucose lowering compared to vehicle-treated rats (ZDF rats): 14%; duration of action (ZDF rats): ~3 h; conversion to N-acetylated metabolite in human liver S9 from various donors [1]: high levels; susceptibility to N-acetylation by NAT2, in words (human NAT2 [3]): extensively metabolized
12 |  |  |  |  | 0 | CCOC(=O)[C@H](C)NP(=O)(N[C@@H](C)C(=O)OCC)c1ccc(-c2nc(N)sc2C(=O)C(C)(C)C)o1 [Compound 2.2, 2-amino-5-(2,2-dimethylpropionyl)-4-{[5-(N,N′-((S)-1-ethoxycarbonyl)-ethyl)phosphonamido]furan-2-yl}thiazole] | 25 | susceptibility to N-acetylation by NAT2, in words (human NAT2 [3]): insusceptible
13 | > 100000 | 149 to 152 | 0 | insusceptible | 0 | CCOC(=O)C(C)(C)NP(=O)(NC(C)(C)C(=O)OCC)c1ccc(-c2nc(N)sc2C(=O)C(C)(C)C)o1 [Compound 2.1] | 68 | glucose lowering compared to vehicle-treated rats (ZDF rats): 30%; duration of action (ZDF rats): > 9 h; conversion to N-acetylated metabolite in human liver S9 from various donors [1]: no conversion; susceptibility to N-acetylation by NAT2, in words (human NAT2 [3]): insusceptible

Row | SMILES | IC50 (human liver FBPase) [nM] | melting point [°C] | % Conversion NAT1 (human NAT1) [%] | susceptibility to N-acetylation by NAT1, in words (human NAT1) | % Conversion NAT2 (human NAT2 [3]) [%] | inhibition in vivo at 10 mg/kg (Sprague-Dawley rats) [%] | further results
14 | CC(C)(C)C(=O)c1sc(N)nc1-c1ccc(P(=O)(O)O)o1 [Compound 1.1, {5-[2-amino-5-(2,2-dimethylpropionyl)thiazol-4-yl]-furan-2-yl}phosphonic acid] | 31 |  | 0 | not metabolized; also recorded: insusceptible |  |  | IC50 (rat liver FBPase): 189 nM; conversion to N-acetylated metabolite in human liver S9 from various donors [1]: no conversion; % Conversion NAT2 (human NAT2 [2]; compound 100 μM, 37° C., 120 min, N-acyl product by HPLC): 0%; susceptibility to N-acetylation by NAT2, in words (human NAT2 [2]; human recombinant NAT2): insusceptible
